Measured values as given in patent US9546153B2, “Bicyclic heterocycle substituted pyridyl compounds useful as kinase modulators” (BRISTOL-MYERS SQUIBB COMPANY, priority 2012, dated 2017).
Where “and” joins values, the source holds several entries; their conditions need not be identical. Equal entries are not always repeated. Where two headings read alike, the source gives them in different places.

Key:
IRAK4 = IRAK4 (Homo sapiens (Human), UniProt Q9NWZ3); test: IRAK4 Inhibition Assay; format: biochemical; conditions: ATP 500 μM; IRAK4 0.6 nM; 60 min at room temperature
IRAK4, sequence (Q9NWZ3 whole entry, species assumed): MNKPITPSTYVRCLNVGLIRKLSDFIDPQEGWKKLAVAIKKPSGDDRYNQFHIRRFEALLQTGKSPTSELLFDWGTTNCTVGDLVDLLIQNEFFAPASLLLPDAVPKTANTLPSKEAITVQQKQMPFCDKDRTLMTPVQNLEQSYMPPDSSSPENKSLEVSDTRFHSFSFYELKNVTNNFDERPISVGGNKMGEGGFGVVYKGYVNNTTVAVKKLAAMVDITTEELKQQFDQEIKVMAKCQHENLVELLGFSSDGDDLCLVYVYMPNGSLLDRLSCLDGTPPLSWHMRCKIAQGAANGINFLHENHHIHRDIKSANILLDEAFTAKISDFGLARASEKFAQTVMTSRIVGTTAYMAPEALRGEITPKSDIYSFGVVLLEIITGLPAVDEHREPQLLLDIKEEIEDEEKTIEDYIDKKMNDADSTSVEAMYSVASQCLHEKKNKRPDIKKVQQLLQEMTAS
Procedure: The assays were performed in U-bottom 384-well plates. […] The reaction was initiated by the combination of IRAK4 with substrates and test compounds. The reaction was incubated at room temperature for 60 min. and terminated by adding 45 μL of 35 mM EDTA to each sample. The reaction mixture was analyzed on the Caliper LABCHIP® 3000 (Caliper, Hopkinton, Mass.) by electrophoretic separation of the fluorescent substrate and phosphorylated product.

[1] = tested on: TLR2 induced IL-6 in peripheral blood mononuclear cells (PBMCs); test: PBMC TLR2 Induced IL-6 Assay; format: cell-based, human; conditions: human PBMCs, 10 μg/ml lipoteichoic acid for 5 hours, IL-6 by ELISA; for IC50: value without asterisk, read-out: Cell IC50
Procedure: Peripheral blood mononuclear cells (PBMCs) were isolated from human blood containing the anti-coagulant EDTA (2.5 mM) by centrifugation over a FICOLL® gradient. PBMCs (250000 cells/well) were cultured in assay media (RPMI with 10% heat inactivated FCS) with compounds for 30 minutes at 37° C. in a 5% CO2 incubator. Following pretreatment with compounds, cells were stimulated for 5 hours with 10 μg/ml lipoteichoic acid (Invivogen, San Diego, Calif.), a TLR2 agonist. At the end of the culture, plates were centrifuged at 1800 rpm for 10 minutes to pellet the cells. Supernatants were harvested and analyzed for IL-6 levels by ELISA (BD Biosciences, San Jose, Calif.). Inhibition was calculated as either an IC50 or EC50. EC50 determinations are indicated with an asterisk.

Row | SMILES | IC50 (IRAK4) | IC50 ([1]; Homo sapiens, PBMC, 5 h) [nM] | IC50 [1] [nM] | EC50 ([1]; Homo sapiens, PBMC, 5 h, EC50 determinations are indicated with an asterisk, read-out: Cell EC50 (asterisk)) [nM]
1 | CNC(=O)c1cnc(Nc2ccc3ncsc3c2)cc1NC1C2CC3CC1CC(O)(C3)C2 (single isomer, unassigned) [Example 146] | 53.9 nM | 550 | – | –
2 | CNC(=O)c1cnc(Nc2ccc3ncsc3c2)cc1NC1C2CC3CC1CC(O)(C3)C2 (single isomer, unassigned) [Example 147] | 17.4 nM | – | 507 | –
3 | CNC(=O)c1cnc(Nc2ccc3ncsc3c2)cc1NC1C2CC3CC1CC(O)(C3)C2 (single isomer, unassigned) [Example 148] | 24.5 nM | – | 456 | –
4 | CC(C)(O)[C@H](F)CNC(=O)c1cnc(Nc2ccc3ncsc3c2)cc1NC1CCC(F)C1 (single isomer, unassigned) [Example 362, 6-(benzo[d]thiazol-6-ylamino)-N-(2-fluoro-3-hydroxy-3-methylbutyl)-4-(3-fluorocyclopentylamino)nicotinamide] | 2.9 nM | – | 44 | –
5 | CC(C)(O)[C@H](F)CNC(=O)c1cnc(Nc2ccc3ncsc3c2)cc1NC1CCC(F)C1 (single isomer, unassigned) [Example 363, 6-(benzo[d]thiazol-6-ylamino)-N-(2-fluoro-3-hydroxy-3-methylbutyl)-4-(3-fluorocyclopentylamino)nicotinamide] | 2.5 nM | – | 87 | –
6 | CC(C)(O)[C@H](F)CNC(=O)c1cnc(Nc2ccc3ncsc3c2)cc1NC1CCC(F)C1 (single isomer, unassigned) [Example 364, 6-(benzo[d]thiazol-6-ylamino)-N-(2-fluoro-3-hydroxy-3-methylbutyl)-4-(3-fluorocyclopentylamino)nicotinamide] | 3.6 nM | – | 92 | –
7 | CC(C)(O)[C@H](F)CNC(=O)c1cnc(Nc2ccc3ncsc3c2)cc1NC1CCC(F)C1 (single isomer, unassigned) [Example 365, 6-(benzo[d]thiazol-6-ylamino)-N-(2-fluoro-3-hydroxy-3-methylbutyl)-4-(3-fluorocyclopentylamino)nicotinamide] | 5.8 nM | – | 97 | –
8 | Cc1cc2nc(Nc3cc(NC4CCC(F)C4)c(C(=O)NC[C@@H](F)C(C)(C)O)cn3)ccn2n1 (single isomer, unassigned) [Example 381] | 6.1 nM | 376 | – | –
9 | CNC(=O)c1cnc(Nc2ccc3c(c2)C(F)(F)C(=O)N3)cc1NC1CCCC1 [Example 1, 4-(cyclopentylamino)-6-(3,3-difluoro-2-oxoindolin-5-ylamino)-N-methylnicotinamide] | 4.4 nM | 612 | – | –
10 | CCOC(=O)c1cn2c(n1)sc1cc(Nc3cc(NC4CCCC4)c(C(=O)NC)cn3)ccc12 [Example 3] | 17.1 nM | 180 | – | –
11 | CNC(=O)c1cnc(Nc2nc3ccc(Cl)nc3s2)cc1NC(C)C [Example 4, 6-(5-chlorothiazolo[5,4-b]pyridin-2-ylamino)-4-(isopropylamino)-N-methylnicotinamide] | 18.2 nM | 639 | – | –
12 | CC(C)Nc1cc(Nc2ccc3ncsc3c2)ncc1C(=O)NC[C@@H](F)CO [Example 5, (R)-6-(benzo[d]thiazol-6-ylamino)-N-(2-fluoro-3-hydroxypropyl)-4-(isopropylamino)nicotinamide] | 9.6 nM | 484 | – | –
13 | CC(C)Nc1cc(Nc2ccc3ncsc3c2)ncc1C(=O)NCCC(C)(C)O [Example 8] | 4.1 nM | 290 | – | –
14 | CC(C)(O)CCNC(=O)c1cnc(Nc2ccc3ncsc3c2)cc1NC1CC1 [Example 9] | 10 nM | 289 | – | –
15 | O=C(NCCC1(O)CCC1)c1cnc(Nc2ccc3ncsc3c2)cc1NC1CC1 [Example 10] | 5.1 nM | 115 | – | –
16 | CC(C)Nc1cc(Nc2ccc3ncsc3c2)ncc1C(=O)NCCc1ccc(C(N)=O)cc1 [Example 11] | 7.8 nM | 726 | – | –
17 | CNC(=O)c1ccc(CCNC(=O)c2cnc(Nc3ccc4ncsc4c3)cc2NC(C)C)cc1 [Example 12] | 5.6 nM | 311 | – | –
18 | CC(C)Nc1cc(Nc2ccc3ncsc3c2)ncc1C(=O)NC[C@@H](F)C(O)C(C)C (stereo partly shown) [Example 13] | 3 nM | – | 107 | –
19 | CC(C)Nc1cc(Nc2ccc3ncsc3c2)ncc1C(=O)NC[C@@H](F)C(O)C(C)C (stereo partly shown) [Example 14] | 4.3 nM | – | 461 | –
20 | CC(C)Nc1cc(Nc2ccc3ncsc3c2)ncc1C(=O)NC[C@@H](F)C(O)C1CC1 (stereo partly shown) [Example 15] | 5.2 nM | 541 | – | –
21 | CC(C)Nc1cc(Nc2ccc3ncsc3c2)ncc1C(=O)NC[C@@H](F)C(O)C1CC1 (stereo partly shown) [Example 16] | 5.2 nM | – | 595 | –
22 | CC(C)Nc1cc(Nc2ccc3ncsc3c2)ncc1C(=O)NC[C@@H](F)C(C)(O)C(F)(F)F (stereo partly shown) [Example 17] | 4.7 nM | 221 | – | –
23 | CC(C)Nc1cc(Nc2ccc3ncsc3c2)ncc1C(=O)NC[C@@H](F)C(C)(O)C(F)(F)F (stereo partly shown) [Example 18] | 6.9 nM | – | 269 | –
24 | CC(O)([C@H](F)CNC(=O)c1cnc(Nc2ccc3ncsc3c2)cc1NC1CC1)C(F)(F)F (stereo partly shown) [Example 19] | 4.3 nM | – | 177 | –
25 | CC(O)([C@H](F)CNC(=O)c1cnc(Nc2ccc3ncsc3c2)cc1NC1CC1)C(F)(F)F (stereo partly shown) [Example 20] | 4.9 nM | – | 562 | –

Row | SMILES | IC50 (IRAK4) | IC50 ([1]; Homo sapiens, PBMC, 5 h) [nM] | IC50 [1] [nM] | EC50 ([1]; Homo sapiens, PBMC, 5 h, EC50 determinations are indicated with an asterisk, read-out: Cell EC50 (asterisk)) [nM]
26 | CC(C)Nc1cc(Nc2ccc3ncoc3c2)ncc1C(=O)NC[C@@H](F)C(O)C(C)C (stereo partly shown) [Example 24] | 4 nM | 468 | – | –
27 | CC(C)C(O)[C@H](F)CNC(=O)c1cnc(Nc2ccc3ncsc3c2)cc1NC1CC1 (stereo partly shown) [Example 25] | 3.5 nM | – | 60 | –
28 | CC(C)C(O)[C@H](F)CNC(=O)c1cnc(Nc2ccc3ncsc3c2)cc1NC1CC1 (stereo partly shown) [Example 26] | 7.3 nM | – | 121 | –
29 | CC(C)C(O)C(F)CNC(=O)c1cnc(Nc2ccc3ncsc3c2)cc1NC(c1ccccc1)C(O)CO (stereo not shown) [Example 27] | 3 nM | 86 | – | –
30 | CC(O)[C@H](F)CNC(=O)c1cnc(Nc2ccc3ncsc3c2)cc1NC1CCCC1 (stereo partly shown) [Example 28] | 7.8 nM | 195 | – | –
31 | CC(O)[C@H](F)CNC(=O)c1cnc(Nc2ccc3ncsc3c2)cc1NC1CCCC1 (stereo partly shown) [Example 29] | 9.2 nM | – | 128 | –
32 | CC(C)(O)C1CC(Nc2cc(Nc3ccc4ncsc4c3)ncc2C(=O)NC[C@@H](F)C(O)(C2CC2)C(F)(F)F)C1 (stereo partly shown) [Example 32] | 15 nM | 511 | – | –
33 | CC(C)(O)[C@H](F)CNC(=O)c1cnc(Nc2ccc3ncsc3c2)cc1NC1CCCC1 [Example 33, (R)-6-(benzo[d]thiazol-6-ylamino)-4-(cyclopentylamino)-N-(2-fluoro-3-hydroxy-3-methylbutyl)nicotinamide] | 3.7 nM | 64 | – | –
34 | CC(C)Nc1cc(Nc2ccc3ncsc3c2)ncc1C(=O)NC[C@@H](F)C(C)(C)O [Example 35] | 2.6 nM | 482 | – | –
35 | CC(C)(O)[C@H](F)CNC(=O)c1cnc(Nc2ccc3nsnc3c2)cc1NC1CCCC1 [Example 36] | 8.2 nM | 893 | – | –
36 | CC(C)(O)[C@H](F)CNC(=O)c1cnc(Nc2ccc3ncsc3c2)cc1NC1CCC(O)C1 (stereo partly shown) [Example 37] | 3.9 nM | 297 | – | –
37 | CC(C)(O)[C@H](F)CNC(=O)c1cnc(Nc2ccc3ncsc3c2)cc1NC1CCC(O)C1 (stereo partly shown) [Example 38] | 5.2 nM | – | 426 | –
38 | CC(CO)Nc1cc(Nc2ccc3ncsc3c2)ncc1C(=O)NC[C@@H](F)C(C)(C)O (stereo partly shown) [Example 39] | 5.3 nM | 503 | – | –
39 | CC(C)Nc1cc(Nc2ccc3nsnc3c2)ncc1C(=O)NC[C@@H](F)C(C)(C)O [Example 41] | 3.5 nM | 318 | – | –
40 | CC(C)(O)[C@H](F)CNC(=O)c1cnc(Nc2ccc3ncsc3c2)cc1NC1CC1 [Example 42] | 2.7 nM | 228 | – | –
41 | CC(C)Nc1cc(Nc2ccc3nonc3c2)ncc1C(=O)NC[C@@H](F)C(C)(C)O [Example 45] | 7.5 nM | 887 | – | –
42 | CC(C)Nc1cc(Nc2ccc3ncncc3c2)ncc1C(=O)NC[C@@H](F)C(C)(C)O [Example 48] | 3.1 nM | 511 | – | –
43 | CC(C)(O)[C@H](F)CNC(=O)c1cnc(Nc2ccc3ncsc3c2)cc1N[C@@H](c1ccccc1)[C@H](O)CO [Example 49] | 3.4 nM | 444 | – | –
44 | CC1(O)CCC(Nc2cc(Nc3ccc4ncsc4c3)ncc2C(=O)NC[C@@H](F)C(C)(C)O)C1 (stereo partly shown) [Example 50] | 6.8 nM | 571 | – | –
45 | CC(C)(O)[C@H](F)CNC(=O)c1cnc(Nc2ccc3ncsc3c2)cc1Nc1ccc(OC(F)F)cc1 [Example 51] | 3.7 nM | 334 | – | –
46 | CC1COCCC1Nc1cc(Nc2ccc3ncsc3c2)ncc1C(=O)NC[C@@H](F)C(C)(C)O (stereo partly shown) [Example 234] | 4.4 nM and 3.2 nM | – | – | –
47 | Cc1cc2nc(Nc3cc(NC(C)C)c(C(=O)NC[C@@H](F)C(C)(C)O)cn3)ccn2n1 [Example 379] | 6.3 nM | – | – | –
48 | CC(C)Nc1cc(Nc2nc3cccnc3cc2F)ncc1C(=O)NC[C@@H](F)C(C)(C)O [Example 499] | – | – | – | 72
49 | CC(C)Nc1cc(Nc2nc3ccnn3cc2F)ncc1C(=O)NCC(F)(F)C(C)(C)O [Example 522] | – | 795 | – | –
